From ChEMBL document CHEMBL1134197, “A series of quinoline analogues as potent inhibitors of C. albicans prolyl tRNA synthetase” (Bioorg Med Chem Lett, 2001)
pIC50, pKi: −log10 of the molar value. Converted amounts (≈) assume the structure as drawn.

Tests used:
[1] = biological target: Bifunctional glutamate/proline--tRNA ligase (Homo sapiens, UniProt P07814); experiment: Aminoacylation activity against human prolyl-tRNA synthetase
[2] = biological target: T1, Proline--tRNA ligase, cytoplasmic (Candida albicans, UniProt P78600); experiment: Aminoacylation activity against Candida albicans prolyl-tRNA synthetase
T1 sequence (P78600 whole entry): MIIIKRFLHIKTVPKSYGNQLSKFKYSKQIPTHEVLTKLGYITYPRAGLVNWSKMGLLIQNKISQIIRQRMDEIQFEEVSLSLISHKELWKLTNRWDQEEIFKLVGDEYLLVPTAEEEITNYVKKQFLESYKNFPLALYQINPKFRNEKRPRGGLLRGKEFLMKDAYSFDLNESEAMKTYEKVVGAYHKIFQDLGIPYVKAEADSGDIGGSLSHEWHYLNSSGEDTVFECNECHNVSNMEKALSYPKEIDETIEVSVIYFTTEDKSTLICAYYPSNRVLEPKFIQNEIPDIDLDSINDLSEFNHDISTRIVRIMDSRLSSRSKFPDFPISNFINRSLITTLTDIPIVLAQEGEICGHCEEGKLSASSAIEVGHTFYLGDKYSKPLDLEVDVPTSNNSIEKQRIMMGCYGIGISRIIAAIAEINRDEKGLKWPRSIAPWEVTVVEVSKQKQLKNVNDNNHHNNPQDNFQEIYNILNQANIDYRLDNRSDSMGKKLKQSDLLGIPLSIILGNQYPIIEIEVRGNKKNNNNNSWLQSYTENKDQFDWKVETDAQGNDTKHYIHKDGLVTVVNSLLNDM

[3] = Minimum inhibitory concentration (MIC) against Candida albicans (has cellular activity); type: functional
[4] = Non-competitive inhibition against Candida albicans prolyl-tRNA synthetase (Ca. ProRS) with respect to proline
[5] = Competitive inhibition against Candida albicans prolyl-tRNA synthetase (Ca. ProRS) with respect to ATP
Candida albicans = experiment: Compound was evaluated for the minimum inhibitory concentration (MIC) against Candida albicans (no cell activity); type: functional

Sequence of Bifunctional glutamate/proline--tRNA ligase (P07814 whole entry): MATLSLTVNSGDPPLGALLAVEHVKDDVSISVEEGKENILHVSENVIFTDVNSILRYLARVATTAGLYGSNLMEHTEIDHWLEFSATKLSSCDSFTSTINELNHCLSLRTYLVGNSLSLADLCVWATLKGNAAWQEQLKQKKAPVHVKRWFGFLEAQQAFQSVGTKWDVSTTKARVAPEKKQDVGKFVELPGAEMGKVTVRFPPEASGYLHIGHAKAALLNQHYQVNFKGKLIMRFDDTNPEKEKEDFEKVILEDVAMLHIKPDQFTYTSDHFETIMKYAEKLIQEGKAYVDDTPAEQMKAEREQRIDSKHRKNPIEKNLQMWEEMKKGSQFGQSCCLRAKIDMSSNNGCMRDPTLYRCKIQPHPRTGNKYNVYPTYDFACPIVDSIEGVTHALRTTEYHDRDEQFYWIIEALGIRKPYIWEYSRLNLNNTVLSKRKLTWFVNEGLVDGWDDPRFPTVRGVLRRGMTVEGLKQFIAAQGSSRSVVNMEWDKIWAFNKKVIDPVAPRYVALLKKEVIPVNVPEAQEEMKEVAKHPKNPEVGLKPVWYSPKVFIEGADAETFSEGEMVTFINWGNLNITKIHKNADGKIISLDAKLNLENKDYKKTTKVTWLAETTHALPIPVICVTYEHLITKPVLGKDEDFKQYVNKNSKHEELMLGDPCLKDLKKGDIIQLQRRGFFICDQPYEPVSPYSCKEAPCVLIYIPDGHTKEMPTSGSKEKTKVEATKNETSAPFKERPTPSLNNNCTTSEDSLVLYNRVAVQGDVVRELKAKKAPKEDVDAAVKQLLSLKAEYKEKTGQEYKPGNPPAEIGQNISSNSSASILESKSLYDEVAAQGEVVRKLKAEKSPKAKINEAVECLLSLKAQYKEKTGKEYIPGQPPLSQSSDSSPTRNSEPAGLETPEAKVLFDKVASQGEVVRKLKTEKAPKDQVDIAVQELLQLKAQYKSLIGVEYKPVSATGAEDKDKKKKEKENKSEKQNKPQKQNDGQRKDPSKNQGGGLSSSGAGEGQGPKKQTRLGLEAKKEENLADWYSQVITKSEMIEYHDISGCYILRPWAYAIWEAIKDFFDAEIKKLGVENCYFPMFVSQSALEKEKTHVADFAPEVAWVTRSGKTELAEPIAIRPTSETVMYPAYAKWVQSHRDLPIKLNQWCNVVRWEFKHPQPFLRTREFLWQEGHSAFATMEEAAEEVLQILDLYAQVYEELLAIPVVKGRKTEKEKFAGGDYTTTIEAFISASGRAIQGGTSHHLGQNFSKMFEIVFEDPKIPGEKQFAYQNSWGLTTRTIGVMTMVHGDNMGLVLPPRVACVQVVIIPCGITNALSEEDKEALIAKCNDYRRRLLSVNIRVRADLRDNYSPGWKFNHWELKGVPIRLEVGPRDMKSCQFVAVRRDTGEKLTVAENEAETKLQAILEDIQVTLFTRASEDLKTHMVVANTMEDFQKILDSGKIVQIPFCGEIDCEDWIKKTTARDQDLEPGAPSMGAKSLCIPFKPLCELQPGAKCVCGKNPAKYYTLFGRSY

Structure (SMILES)	pIC50 [1]	pIC50 [2]	also measured
Cc1cc(Cl)cc2c(C(=O)OCc3ccco3)cc(-c3ccc(Br)cc3)nc12	< 4.00	7.15	
Cc1cc(Cl)cc2c(COS(N)(=O)=O)cc(-c3ccc(Br)cc3)nc12		5.62	
O=C(O)/C=C/c1ccc2nc(-c3ccc(Br)cc3)cc(C(=O)O)c2c1	4.10	5.89	
Cc1cc(Cl)c2nc(-c3ccc(Br)cc3)cc(C(=O)O)c2c1	< 4.70	7.60	
O=C(O)c1cc(-c2ccc(Br)cc2)nc2ccc(-c3ccc(O)cc3)cc12	4.46	6.46	
Cc1cc(C)c2nc(-c3ccc(Br)cc3)cc(C(=O)O)c2c1	< 4.00	4.60	
Cc1cc(Cl)cc2c(-c3nn[nH]n3)cc(-c3ccc(Br)cc3)nc12	< 4.00	7.52	
Cc1cc(Cl)cc2nc(-c3ccc(Br)cc3)cc(C(=O)O)c12	< 4.00	5.82	
O=C(O)c1cc(-c2ccc(Br)cc2)nc2ccc(S(=O)(=O)O)cc12	< 4.00	4.82	
O=C(O)c1cc(-c2ccc(Cl)s2)nc2ccccc12	< 4.00	4.49	
O=C(O)c1cc(-c2ccc(Br)cc2)nc2ccc(Cl)cc12	< 4.70	7.59	
O=C(O)c1cc(-c2ccc(Br)cc2)nc2ccc(Br)cc12	< 4.70	7.60	
O=C(O)c1cc(-c2ccc3ccccc3c2)nc2ccccc12	< 4.00	5.44	
Cc1c(Br)ccc2c(C(=O)O)cc(-c3ccc(Br)cc3)nc12	4.15	6.82	MIC [3]: 25 µg/mL (≈ 59.4 µM)
Nc1ccc2nc(-c3ccc(Br)cc3)cc(C(=O)O)c2c1	4.02	5.48	
O=C(O)c1cc(-c2ccc(Br)cc2)nc2ccc(I)cc12	< 4.00	7.72	
O=C(O)c1cc(-c2ccccc2)nc2ccccc12 [CINCHOPHEN]	< 4.00	< 4.00	

Now from value to molecule, other results behind:

pIC50 [1]	pIC50 [2]	Structure (SMILES)	also measured
< 4.00	< 4.00	COc1ccc(-c2cc(C(=O)O)c3ccccc3n2)cc1	
4.25	6.66	O=C(O)c1cc(-c2ccc(Br)cc2)nc2c(C(F)(F)F)cc(Br)cc12	
< 4.00	4.72	O=C(O)c1cc(-c2ccc(Cl)c(Cl)c2)nc2ccccc12	
< 4.00	5.82	O=C(O)c1cc(-c2ccc(Br)cc2)nc2c(CO)cc(Cl)cc12	
< 4.00	< 4.00	O=C(O)c1cc(-c2ccco2)nc2ccccc12	
< 4.00	< 4.00	O=C(O)c1cc(-c2ccc(C(F)(F)F)cc2)nc2ccccc12	
< 4.00	7.28	O=C(O)c1cc(-c2ccc(Br)cc2)nc2ccc(OC(F)(F)F)cc12	
< 4.00	5.06	Cc1cc(Cl)cc2c(C(=O)OCc3ccc(-c4ccccc4)cc3)cc(-c3ccc(Br)cc3)nc12	
< 4.00	7.70	Cc1cc(Cl)cc2c(C(=O)OCc3ccc(Cl)c(Cl)c3)cc(-c3ccc(Br)cc3)nc12	
4.22	6.92	Cc1c(F)ccc2c(C(=O)O)cc(-c3ccc(Br)cc3)nc12	
< 4.70	8.30	Cc1cc(Cl)cc2c(C(=O)O)cc(-c3ccc(Br)cc3)nc12	pKi [4]: 7.82; pKi [5]: 8.29; MIC (Candida albicans): > 100 µg/mL
< 4.00	6.85	O=C(O)c1cc(-c2ccc(Br)cc2)nc2cc(Cl)cc(Cl)c12	
< 4.00	< 4.00	O=C(O)c1cc(-c2ccncc2)nc2ccccc12	
< 4.00	5.24	COC(=O)C(Cc1ccccc1)NC(=O)c1cc(-c2ccc(Br)cc2)nc2c(C)cc(Cl)cc12 (configuration not stated)	
< 4.00	6.30	O=C(O)c1cc(-c2ccc(Br)cc2)nc2ccccc12	
